Nine compounds from ChEMBL document CHEMBL1201862, “PubChem BioAssay data set” (2004) can be followed below.

Active and inactive are the calls of the source.

Assay [1] deals with NAD-dependent protein deacylase sirtuin-5, mitochondrial (Homo sapiens, UniProt Q9NXA8). The experiment in a line: sirtuin-5 deacylation blockers, concentration series – biochemical, fluorescence imaging, cherry-pick, set 5, dose response (AID 720591).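 Further: desuccinylation of succinyl peptide AMC substrate read as fluorescence after trypsin release; potency of inhibitors that lower fluorescence and may act on trypsin instead.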
The target in assay [2] is T1, Replicative DNA helicase DnaB (Mycobacterium tuberculosis, UniProt P9WMR3).
T1 sequence (P9WMR3 whole entry): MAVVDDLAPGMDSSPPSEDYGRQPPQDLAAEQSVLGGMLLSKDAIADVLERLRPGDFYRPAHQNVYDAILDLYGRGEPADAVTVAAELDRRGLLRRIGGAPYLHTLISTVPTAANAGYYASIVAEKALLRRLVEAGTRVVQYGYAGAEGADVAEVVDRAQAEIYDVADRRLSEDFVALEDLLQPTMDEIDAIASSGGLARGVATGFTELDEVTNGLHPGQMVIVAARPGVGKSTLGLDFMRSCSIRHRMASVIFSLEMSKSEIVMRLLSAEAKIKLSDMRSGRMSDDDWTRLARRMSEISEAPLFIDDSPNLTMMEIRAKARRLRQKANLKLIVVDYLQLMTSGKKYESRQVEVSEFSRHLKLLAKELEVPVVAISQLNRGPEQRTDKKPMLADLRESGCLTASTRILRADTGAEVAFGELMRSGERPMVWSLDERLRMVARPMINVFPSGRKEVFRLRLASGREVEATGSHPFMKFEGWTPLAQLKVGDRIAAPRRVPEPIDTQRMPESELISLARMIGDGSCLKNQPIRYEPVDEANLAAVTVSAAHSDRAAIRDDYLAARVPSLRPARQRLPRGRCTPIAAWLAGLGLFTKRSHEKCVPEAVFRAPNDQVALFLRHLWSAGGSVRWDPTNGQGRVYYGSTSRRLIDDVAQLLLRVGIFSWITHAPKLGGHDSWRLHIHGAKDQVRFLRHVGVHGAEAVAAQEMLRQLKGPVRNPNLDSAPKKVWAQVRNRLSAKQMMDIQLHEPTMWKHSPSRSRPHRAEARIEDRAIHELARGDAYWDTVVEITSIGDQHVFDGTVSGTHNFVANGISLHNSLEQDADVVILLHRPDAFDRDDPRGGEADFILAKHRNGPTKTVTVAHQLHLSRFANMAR
Nature of the assay: DnaB intein splicing inhibitors, dose response, biochemical, cell-free fluorescence (AID 449749). Type of assay: functional.

In a further assay the target is T2, Protein RecA (Mycobacterium tuberculosis, UniProt P9WHJ3).
T2 sequence (P9WHJ3 whole entry): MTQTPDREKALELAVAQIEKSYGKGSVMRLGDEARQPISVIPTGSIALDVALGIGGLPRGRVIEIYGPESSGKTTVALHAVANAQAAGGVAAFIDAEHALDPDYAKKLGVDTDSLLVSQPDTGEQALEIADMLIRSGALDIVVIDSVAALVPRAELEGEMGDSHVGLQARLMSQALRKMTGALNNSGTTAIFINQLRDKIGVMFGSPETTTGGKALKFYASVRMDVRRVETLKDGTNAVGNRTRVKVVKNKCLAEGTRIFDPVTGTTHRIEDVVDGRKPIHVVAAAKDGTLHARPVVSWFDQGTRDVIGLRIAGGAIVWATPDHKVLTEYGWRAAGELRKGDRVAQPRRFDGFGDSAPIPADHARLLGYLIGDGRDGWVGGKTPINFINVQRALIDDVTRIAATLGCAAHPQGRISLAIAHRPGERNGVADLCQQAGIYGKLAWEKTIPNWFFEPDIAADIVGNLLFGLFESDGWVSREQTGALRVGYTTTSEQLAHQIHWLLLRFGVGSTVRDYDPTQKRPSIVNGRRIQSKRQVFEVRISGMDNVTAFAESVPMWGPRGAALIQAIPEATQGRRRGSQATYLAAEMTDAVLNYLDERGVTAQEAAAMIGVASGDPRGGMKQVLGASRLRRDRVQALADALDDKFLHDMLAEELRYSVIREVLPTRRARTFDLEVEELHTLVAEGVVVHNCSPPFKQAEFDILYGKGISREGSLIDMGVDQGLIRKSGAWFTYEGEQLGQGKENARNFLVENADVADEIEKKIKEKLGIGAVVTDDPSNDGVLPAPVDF
The experiment in a line: Fluorescence Cell-Free Homogeneous Dose Retest to Identify Inhibitors of RecA-Intein Splicing Activity. [Related pubchem assays (depositor defined):AID2097, AID2223, AID489010, AID492950]. Type of assay: functional.

The target of assay [3] is Disintegrin and metalloproteinase domain-containing protein 17 (Homo sapiens, UniProt P78536). Nature of the assay: exosite inhibitors of ADAM17, dose response, biochemical (AID 743260).
For assay [4], the target named is Peroxisome proliferator-activated receptor gamma/Nuclear receptor coactivator 2 (Homo sapiens, UniProt P37231). Format: functional.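 Further: agonist potency for raising coactivator recruitment to the receptor.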
The target in assay [5] is Peroxisome proliferator-activated receptor gamma/Nuclear receptor coactivator 1 (Homo sapiens, UniProt P37231). Type of assay: functional.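 Further: agonist potency as compounds enhance coactivator SRC-1 recruitment to PPARgamma.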
The target of assay [6] is Peroxisome proliferator-activated receptor gamma/Nuclear receptor coactivator 3 (Homo sapiens, UniProt P37231). Type of assay: functional.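 Further: agonist potency for raising coactivator recruitment to the receptor.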
The target in assay [7] is Neurotensin receptor type 1 (Homo sapiens, UniProt P30989). Type of assay: functional.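 Further: Image-based confirmatory dose-response assay measuring agonist activity at NTR1; NTR1-expressing U2OS osteosarcoma cells imaged for beta-arrestin GFP spot formation; agonist potency where compounds increase beta-arrestin recruitment.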
Assay [8] is described as follows: luciferase reporter signal suppression in cells – H4 neuroglioma cells, luminescence, dose response (AID 1990). Type of assay: functional, cell-based. A general note: A reporter such as luciferase makes a cellular process visible.
A short description of assay [9]: Luminescence Cell-Based Dose Response HTS to Identify Inhibitors of 5'UTR Stem-Loop Driven Prion Protein mRNA Translation in H4 Neuroglioblastoma Cells. [Related pubchem assays: 1827 (Project Summary), 1813 (Primary HTS)]. Type of assay: functional.
Assay [10] is described as follows: alpha-synuclein stem-loop luciferase translation blockers – H4 neuroglioma cells, luminescence, confirmation (AID 1988). Type of assay: functional, cell-based.
The target in the next assay is T3, Protein Tat (Human immunodeficiency virus type 1 group M subtype B (isolate HXB2)(HIV-1), UniProt P04608).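 Further: tat binding to TAR RNA read out by fluorescence polarization.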
T3 sequence (P04608 whole entry): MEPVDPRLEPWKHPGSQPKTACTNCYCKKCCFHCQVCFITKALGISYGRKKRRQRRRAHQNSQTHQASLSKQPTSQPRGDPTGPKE
Type of assay: functional.

Sequence of Peroxisome proliferator-activated receptor gamma/Nuclear receptor coactivator 2 (P37231 whole entry): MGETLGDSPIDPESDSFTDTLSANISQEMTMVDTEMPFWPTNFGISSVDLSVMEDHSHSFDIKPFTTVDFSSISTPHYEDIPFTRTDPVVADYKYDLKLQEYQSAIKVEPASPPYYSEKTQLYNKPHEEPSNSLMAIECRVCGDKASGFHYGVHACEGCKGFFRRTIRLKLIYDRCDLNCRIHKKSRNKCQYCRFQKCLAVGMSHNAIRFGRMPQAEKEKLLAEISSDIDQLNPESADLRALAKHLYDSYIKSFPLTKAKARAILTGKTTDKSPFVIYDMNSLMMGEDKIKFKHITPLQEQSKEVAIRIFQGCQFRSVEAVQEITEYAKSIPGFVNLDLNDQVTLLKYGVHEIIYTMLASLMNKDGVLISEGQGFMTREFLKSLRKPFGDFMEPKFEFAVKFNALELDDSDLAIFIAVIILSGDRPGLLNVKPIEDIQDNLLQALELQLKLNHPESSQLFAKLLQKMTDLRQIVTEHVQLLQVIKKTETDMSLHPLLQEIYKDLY
Sequence of Peroxisome proliferator-activated receptor gamma/Nuclear receptor coactivator 2 (Q15596 whole entry, further chain): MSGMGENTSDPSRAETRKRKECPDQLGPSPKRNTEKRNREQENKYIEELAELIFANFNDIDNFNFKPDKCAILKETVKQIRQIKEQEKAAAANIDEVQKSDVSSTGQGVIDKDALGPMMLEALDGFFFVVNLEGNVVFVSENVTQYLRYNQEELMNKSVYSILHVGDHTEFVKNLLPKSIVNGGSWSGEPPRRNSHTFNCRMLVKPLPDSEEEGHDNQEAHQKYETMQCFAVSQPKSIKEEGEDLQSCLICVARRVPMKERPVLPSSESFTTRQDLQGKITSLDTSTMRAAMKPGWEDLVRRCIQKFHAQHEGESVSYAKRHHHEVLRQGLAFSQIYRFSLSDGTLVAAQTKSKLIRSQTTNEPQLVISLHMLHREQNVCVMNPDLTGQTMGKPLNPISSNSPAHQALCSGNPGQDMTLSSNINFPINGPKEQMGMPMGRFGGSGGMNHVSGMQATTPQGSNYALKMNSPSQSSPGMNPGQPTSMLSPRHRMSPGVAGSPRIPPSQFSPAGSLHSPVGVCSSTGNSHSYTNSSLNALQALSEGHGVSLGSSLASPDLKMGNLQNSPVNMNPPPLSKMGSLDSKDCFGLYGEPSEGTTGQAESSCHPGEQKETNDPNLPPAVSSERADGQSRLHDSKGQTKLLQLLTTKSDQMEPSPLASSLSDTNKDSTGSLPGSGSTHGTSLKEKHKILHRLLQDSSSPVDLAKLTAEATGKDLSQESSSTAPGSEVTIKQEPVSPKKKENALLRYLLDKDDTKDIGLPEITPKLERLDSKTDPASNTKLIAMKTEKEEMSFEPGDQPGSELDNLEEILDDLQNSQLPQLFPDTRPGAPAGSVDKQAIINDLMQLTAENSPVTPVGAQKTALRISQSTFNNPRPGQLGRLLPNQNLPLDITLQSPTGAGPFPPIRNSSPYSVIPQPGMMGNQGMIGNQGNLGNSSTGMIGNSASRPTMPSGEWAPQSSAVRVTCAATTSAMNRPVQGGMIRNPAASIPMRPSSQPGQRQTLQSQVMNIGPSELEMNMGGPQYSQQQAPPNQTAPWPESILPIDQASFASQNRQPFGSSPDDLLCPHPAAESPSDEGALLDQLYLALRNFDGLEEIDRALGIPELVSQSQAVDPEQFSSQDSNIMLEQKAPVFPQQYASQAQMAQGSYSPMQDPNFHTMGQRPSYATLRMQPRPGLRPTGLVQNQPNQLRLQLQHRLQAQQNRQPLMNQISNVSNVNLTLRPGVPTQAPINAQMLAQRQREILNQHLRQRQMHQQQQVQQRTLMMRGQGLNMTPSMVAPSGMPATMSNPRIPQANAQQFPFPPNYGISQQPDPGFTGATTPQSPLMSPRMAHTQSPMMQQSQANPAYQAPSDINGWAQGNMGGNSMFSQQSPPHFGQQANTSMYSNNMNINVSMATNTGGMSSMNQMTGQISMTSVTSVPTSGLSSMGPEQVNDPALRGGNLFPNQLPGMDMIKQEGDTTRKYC
Sequence of Peroxisome proliferator-activated receptor gamma/Nuclear receptor coactivator 1 (P37231 whole entry): as the sequence (P37231 whole entry) above
Sequence of Peroxisome proliferator-activated receptor gamma/Nuclear receptor coactivator 1 (Q15788 whole entry, further chain): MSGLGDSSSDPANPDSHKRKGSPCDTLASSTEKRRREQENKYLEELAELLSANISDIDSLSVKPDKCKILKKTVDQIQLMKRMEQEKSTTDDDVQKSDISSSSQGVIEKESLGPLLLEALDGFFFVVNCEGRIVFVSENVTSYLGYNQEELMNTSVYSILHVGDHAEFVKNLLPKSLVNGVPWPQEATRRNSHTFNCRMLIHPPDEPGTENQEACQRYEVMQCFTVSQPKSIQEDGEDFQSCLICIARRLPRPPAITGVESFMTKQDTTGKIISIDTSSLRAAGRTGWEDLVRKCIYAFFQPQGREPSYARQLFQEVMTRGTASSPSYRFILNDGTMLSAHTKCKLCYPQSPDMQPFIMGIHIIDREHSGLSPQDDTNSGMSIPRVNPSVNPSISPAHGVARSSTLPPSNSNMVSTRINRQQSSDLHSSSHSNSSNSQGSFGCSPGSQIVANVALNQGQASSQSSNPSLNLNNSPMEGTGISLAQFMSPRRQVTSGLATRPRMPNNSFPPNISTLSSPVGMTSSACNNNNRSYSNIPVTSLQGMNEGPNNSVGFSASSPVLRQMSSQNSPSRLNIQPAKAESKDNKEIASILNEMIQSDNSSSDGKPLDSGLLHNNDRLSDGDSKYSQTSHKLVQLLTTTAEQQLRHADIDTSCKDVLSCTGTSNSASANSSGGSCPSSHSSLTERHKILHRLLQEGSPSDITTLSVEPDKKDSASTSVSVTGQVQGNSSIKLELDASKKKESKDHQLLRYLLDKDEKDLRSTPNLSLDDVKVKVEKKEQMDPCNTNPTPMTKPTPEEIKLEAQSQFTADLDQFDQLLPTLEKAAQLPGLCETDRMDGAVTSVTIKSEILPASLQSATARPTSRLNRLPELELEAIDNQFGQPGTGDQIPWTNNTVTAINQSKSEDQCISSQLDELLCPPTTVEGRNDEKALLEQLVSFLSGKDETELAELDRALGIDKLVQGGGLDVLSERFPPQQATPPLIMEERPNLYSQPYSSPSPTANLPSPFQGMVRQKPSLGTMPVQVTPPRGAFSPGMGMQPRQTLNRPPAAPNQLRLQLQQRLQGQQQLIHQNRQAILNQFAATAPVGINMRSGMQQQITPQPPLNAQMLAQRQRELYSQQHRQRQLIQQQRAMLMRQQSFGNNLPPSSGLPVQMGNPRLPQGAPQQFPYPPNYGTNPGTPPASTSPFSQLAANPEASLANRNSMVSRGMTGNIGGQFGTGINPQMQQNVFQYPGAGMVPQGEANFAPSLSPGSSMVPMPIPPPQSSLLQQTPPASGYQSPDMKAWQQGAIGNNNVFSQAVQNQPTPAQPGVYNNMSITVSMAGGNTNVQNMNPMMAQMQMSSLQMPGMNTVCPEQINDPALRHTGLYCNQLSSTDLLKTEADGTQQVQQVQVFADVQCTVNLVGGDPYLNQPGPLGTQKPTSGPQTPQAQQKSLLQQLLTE
Sequence of NAD-dependent protein deacylase sirtuin-5, mitochondrial (Q9NXA8 whole entry): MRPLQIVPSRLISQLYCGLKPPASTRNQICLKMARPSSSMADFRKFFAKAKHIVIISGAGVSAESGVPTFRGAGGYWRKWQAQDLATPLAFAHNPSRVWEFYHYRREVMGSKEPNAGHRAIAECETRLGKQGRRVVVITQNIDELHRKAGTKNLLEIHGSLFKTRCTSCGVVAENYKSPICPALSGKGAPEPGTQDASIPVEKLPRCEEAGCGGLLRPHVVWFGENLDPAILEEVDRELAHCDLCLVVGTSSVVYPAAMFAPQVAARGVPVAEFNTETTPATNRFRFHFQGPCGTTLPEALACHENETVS
Sequence of Neurotensin receptor type 1 (P30989 whole entry): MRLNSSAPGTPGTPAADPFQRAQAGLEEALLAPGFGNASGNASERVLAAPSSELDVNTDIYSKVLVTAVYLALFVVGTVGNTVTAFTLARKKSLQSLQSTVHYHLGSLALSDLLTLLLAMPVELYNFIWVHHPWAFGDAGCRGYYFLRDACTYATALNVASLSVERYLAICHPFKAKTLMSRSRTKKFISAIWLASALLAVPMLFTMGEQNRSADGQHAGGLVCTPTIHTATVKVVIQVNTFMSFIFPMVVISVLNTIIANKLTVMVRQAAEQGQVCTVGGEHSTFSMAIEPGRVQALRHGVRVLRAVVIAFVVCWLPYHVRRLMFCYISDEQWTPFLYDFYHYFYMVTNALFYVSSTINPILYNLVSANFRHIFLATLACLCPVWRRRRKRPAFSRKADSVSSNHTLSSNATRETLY

With `Cc1ccc(CCN2CC(C(=O)NCCN(C)C)CC2=O)cc1` (stereo not given), the AC50 (in general, the midpoint of the concentration-response curve, whichever way the signal moves) in assay [1] was > 30 µM (inactive).

`COc1cc(C(c2c(C)[nH][nH]c2=O)c2c(C)[nH][nH]c2=O)ccc1OCc1ccc([N+](=O)[O-])cc1`: the half-maximal activity concentration (AC50) in assay [2] is 338 nM (active). Moreover, on Protein RecA, the EC50 (as a rule, the midpoint of the concentration-response curve) was 178 nM (active). Also, the IC50 (usually the concentration needed to halve the response being measured) in assay [3] is > 69.5 µM (inactive).

Regarding `CC(C)N1CCN(Cc2ccc(Oc3ncccn3)cc2)CC1CCO` (stereo not given), the EC50 in assay [4], in assay [5] and in [6] was > 79.4 µM (not active) in each case.

Regarding `OC(C#CCN1CCCC1)(c1ccccc1)c1cccc(F)c1` (stereo not given), the EC50 in assay [4], in assay [5] and in [6] was > 79.4 µM (not active) throughout.

As to `Cc1ccc(NC(=O)CSc2nnc(-c3ccc(S(=O)(=O)N4CCCC4)cc3)o2)cc1C`, the EC50 in assay [4] is reported as 39.8 µM (not active); in assay [5] it was 81.2 µM (not active); in [6], > 79.4 µM (not active).

For `O=C(N/N=C/c1ccc(OC(=O)c2ccccc2Cl)cc1)c1ccc(O)cc1`, the EC50 in [7] was 17.1 µM (active).

In the case of `CC(C)C[C@H](NC(=O)c1[nH]cnc1C(=O)N1CCN(c2ccccc2)CC1)C(=O)OC(C)(C)C`, the figures for the EC50 in assay [8], in assay [9] and in assay [10] were 14.5 µM (active), 65.1 µM (active) and 26.5 µM (active), respectively. For the same compound, the IC50 at Protein Tat was > 100 µM (active).

`CSc1oc(-c2ccco2)nc1S(=O)(=O)c1ccccc1`: the IC50 on Protein Tat is > 100 µM (active).

Take `C[C@H](CO)N1C[C@H](C)[C@H](CN(C)C(=O)Nc2cccc3ccccc23)OCc2cnnn2CCCC1=O`: in [1], the concentration at half-maximal activity (AC50) was 2.28 µM (active).
